According to US20220348592A1, “FUSED HETEROCYCLIC DERIVATIVES” (Janssen Sciences Ireland Unlimited Company, priority 2019, published 2022):
Like-named read-outs stand apart in the source and are kept apart here.

Experiments:
HBV = test: Anti-HBV activity: intracellular HBV DNA by real-time PCR in HepG2.117 cell line; type: cell-based, Hepatitis B virus; conditions: Hepatitis B virus, read-out: HBV-AVE-HepG2.117 EC50 (μM, mean value)
In short: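 HepG2.117 cells, a Tet-off inducible HBV-producing line, induced to replicate HBV and then treated with serially diluted compound. After 3 days, intracellular HBV DNA quantified by real-time PCR with HBV-specific primers and probe.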

[1] = Cytotoxicity in HepG2.117 cells, ATPlite Luminescence Assay; type: cell-based, human; conditions: human, incubated for 3 days, mean value, read-out: TOX-HepG2.117 CC50 (μM, mean value)
Protocol: Cytotoxicity of the compounds was tested using HepG2 or HepG2.117 cells, incubated for 3 days in the presence of compounds. The viability of the cells was assessed using the PERKIN ELMER ATPlite Luminescence Assay System.”

[2] = 72 h, HepG2.117 cells, 3 days of treatment, intracellular HBV DNA by real-time PCR, mean value

| SMILES | EC50 (HBV; [2]) [µM] | CC50 at 3 days [1] [µM] | EC50 (HBV; HepG2.117, 72 h) [µM] |
| --- | --- | --- | --- |
| C[C@@H]1Cc2nn3c(c2CN1C(=O)c1ccc(Cl)c(Cl)c1)C(=O)N(Cc1cn2ccc(C(F)(F)F)cc2n1)CC3 [Example C176] | 0.274 | 15 | – |
| COc1ccc(CCN2CCn3nc4c(c3C2=O)CN(C(=O)c2ccc(Cl)c(Cl)c2)[C@H](C)C4)cc1 [Example C58] | 0.531 | 18 | – |
| O=C(c1ccc(Cl)c(Cl)c1)N1CCc2nn3c(c2C1)C(=S)NCCC3 [Compound 48, (3,4-dichlorophenyl)(11-sulfanylidene-1,3,4,7,8,9,10,11-octahydro-2H-pyrido[4′,3′:3,4]pyrazolo-[1,5-a][1,4]diazepin-2-yl)methanone] | 1.23 | > 50 | – |
| O=C(c1ccc(Cl)c(Cl)c1)N1CCc2nn3c(c2C1)C(=O)N(Cc1ccccn1)CCC3 [Example C83, 2-(3,4-dichlorobenzoyl)-10-(pyridin-2-ylmethyl)-1,2,3,4,7,8,9,10-octahydro-11H-pyrido[4′,3′:3,4]pyrazolo[1,5-a][1,4]diazepin-11-one] | 0.229 | > 50 | – |
| Cc1c(F)ccc2[nH]c(C(=O)N3Cc4c(nn5c4C(=O)N(Cc4ccccn4)CC5)C[C@H]3C)cc12 [Example C107] | 0.015 | 13.2 | – |
| C[C@@H]1Cc2nn3c(c2CN1C(=O)c1ccc(Cl)c(Cl)c1)C(=O)N(Cc1ccccn1)CC3 [Compound 15, (3R)-2-(3,4-Dichlorobenzoyl)-3-methyl-9-[(pyridin-2-yl)methyl]-1,2,3,4,8,9-hexahydropyrido-[4′,3′:3,4]pyrazolo[1,5-a]pyrazin-10(71)-one] | 0.055 | > 50 | – |
| C[C@@H]1Cc2nn3c(c2CN1C(=O)c1ccc(Cl)c(Cl)c1)C(=O)N(Cc1cc(F)cc(C#N)c1)CC3 [Example C230] | 0.045 | > 12.5 | – |
| O=C(c1ccc(Cl)c(Cl)c1)N1CCc2nn3c(c2C1)C(=O)N(Cc1ccccc1)CC3 [Compound 3, 9-Benzyl-2-(3,4-dichlorobenzoyl)-1,2,3,4,8,9-hexahydropyrido[4′,3′:3,4]pyrazolo[1,5-a]pyrazin-10(7H)-one] | – | 25.3 | 0.188 |
| C[C@@H]1Cc2nn3c(c2CN1C(=O)c1ccc(Cl)c(Cl)c1)C(=O)N(Cc1ncnn1C)CC3 [Example C144] | > 2.5 | > 50 | – |
| Cc1cc(Cl)ccc1C(=O)N1CCc2nn3c(c2C1)C(=O)N(Cc1ccccn1)CC3 [Example C74] | > 2.5 | > 50 | – |
| CC(c1cccnc1)N1CCn2nc3c(c2C1=O)CN(C(=O)c1ccc(Cl)c(Cl)c1)[C@H](C)C3 (stereo partly drawn) [Example C185] | 0.114 | > 50 | – |
| C[C@@H]1Cc2nn3c(c2CN1C(=O)c1ccc(Cl)c(Cl)c1)C(=O)N(Cc1cccc(F)c1C#N)CC3 [Example C95] | 0.2 | > 47 | – |
| Cc1ncoc1CN1CCn2nc3c(c2C1=O)CN(C(=O)c1ccc(Cl)c(Cl)c1)[C@H](C)C3 [Example C214] | 0.074 | > 50 | – |
| O=C(c1ccc(Cl)c(Cl)c1)N1CCc2nn3c(c2C1)C(=O)N(Cc1ccc(OC(F)F)cc1)CC3 [Compound 10, 2-(3,4-Dichlorobenzoyl)-9-{[4-(difluoromethoxy)phenyl]methyl}-1,2,3,4,8,9-hexahydropyrido-[4′,3′:3,4]pyrazolo[1,5-a]pyrazin-10(7H)-one] | 0.062 | 7.26 | – |
| C[C@@H]1Cc2nn3c(c2CN1C(=O)c1ccc(Cl)c(Cl)c1)C(=O)N(Cc1coc(C(F)(F)F)n1)CC3 [Example C172] | 0.19 | > 50 | – |
| COc1ccc([C@H](C)N2CCn3nc4c(c3C2=O)CN(C(=O)c2ccc(Cl)c(Cl)c2)[C@H](C)C4)cc1 [Compound 24, (3R)-2-(3,4-dichlorobenzoyl)-9-[(1S)-1-(4-methoxyphenyl)ethyl]-3-methyl-1,2,3,4,8,9-hexahydropyrido[4′,3′:3,4]pyrazolo[1,5-a]pyrazin-10(7H)-one] | 0.036 | 10.4 | – |
| C[C@@H]1Cc2nn3c(c2CN1C(=O)c1ccc(Cl)c(Cl)c1)C(=O)N(Cc1cccc(C(F)(F)F)n1)CC3 [Example C213] | 0.382 | 37.5 | – |
| Cc1noc(C)c1CN1CCn2nc3c(c2C1=O)CN(C(=O)c1ccc(Cl)c(Cl)c1)[C@H](C)C3 [Example C142] | 0.268 | > 50 | – |
| Cc1cc(CN2CCn3nc4c(c3C2=O)CN(C(=O)c2ccc(Cl)c(Cl)c2)[C@H](C)C4)ccc1C#N [Example C204] | 0.028 | 19.2 | – |
| Cc1ccc(CN2CCn3nc4c(c3C2=O)CN(C(=O)c2ccc(Cl)c(Cl)c2)[C@H](C)C4)c(C)n1 [Example C232] | 0.066 | 24.4 | – |
| COc1ccccc1C(C)N1CCn2nc3c(c2C1=O)CN(C(=O)c1ccc(Cl)c(Cl)c1)[C@H](C)C3 (stereo partly drawn) [Example C227] | 0.129 | 37.3 | – |

| SMILES | EC50 (HBV; [2]) [µM] | CC50 at 3 days [1] [µM] | EC50 (HBV; HepG2.117, 72 h) [µM] |
| --- | --- | --- | --- |
| C[C@@H]1Cc2nn3c(c2CN1C(=O)c1ccc(Cl)c(Cl)c1)C(=O)N(Cc1ccc(F)c(C#N)c1)CC3 [Example C216] | 0.09 | > 50 | – |
| CCc1noc(C(C)N2CCn3nc4c(c3C2=O)CN(C(=O)c2ccc(Cl)c(Cl)c2)[C@H](C)C4)n1 (stereo partly drawn) [Example C222] | 0.124 | > 50 | – |
| C[C@@H]1Cc2nn3c(c2CN1C(=O)c1ccc(Cl)c(Cl)c1)C(=O)N(Cc1ccn(C)n1)CC3 [Compound 19, (3R)-2-(3,4-Dichlorobenzoyl)-3-methyl-9-[(1-methyl-1H-pyrazol-3-yl)methyl]-1,2,3,4,8,9-hexahydropyrido[4′,3′:3,4]pyrazolo[1,5-a]pyrazin-10(7H)-one] | 0.079 | > 50 | – |
| C[C@@H]1Cc2nn3c(c2CN1C(=O)c1cc2c(F)ccc(F)c2[nH]1)C(=O)N(Cc1ccccn1)CC3 [Example C108] | 0.085 | 20 | – |
| Cc1cc(C#N)ccc1CN1CCn2nc3c(c2C1=O)CN(C(=O)c1ccc(Cl)c(Cl)c1)[C@H](C)C3 [Example C207] | 0.053 | 25.6 | – |
| C[C@@H]1Cc2nn3c(c2CN1C(=O)c1cc2c(Cl)cc(F)cc2[nH]1)C(=O)N(Cc1ccccn1)CC3 [Example C116] | 0.015 | 12.4 | – |
| C[C@@H]1Cc2nn3c(c2CN1C(=O)c1ccc(Cl)c(Cl)c1)C(=O)N(Cc1ccc(C#N)cn1)CC3 [Example C195] | 0.566 | > 50 | – |
| Cc1ccc(F)c2[nH]c(C(=O)N3Cc4c(nn5c4C(=O)N(Cc4ccccn4)CC5)C[C@H]3C)cc12 [Example C114] | 0.048 | 30.9 | – |
| Cc1nocc1CN1CCn2nc3c(c2C1=O)CN(C(=O)c1ccc(Cl)c(Cl)c1)[C@H](C)C3 [Example C241] | 0.19 | > 50 | – |
| CC(c1cccc2cccnc12)N1CCn2nc3c(c2C1=O)CN(C(=O)c1ccc(Cl)c(Cl)c1)[C@H](C)C3 (stereo partly drawn) [Example C191] | 0.097 | 33 | – |
| C[C@@H]1Cc2nn3c(c2CN1C(=O)c1cc2c(F)cc(F)cc2[nH]1)C(=O)N(Cc1ccccn1)CC3 [Example C110] | 0.017 | 16 | – |
| O=C(c1ccc(Cl)c(Cl)c1)N1CCc2nn3c(c2C1)C(=O)N(Cc1cccc2[nH]ccc12)CC3 [Compound 9, 2-(3,4-Dichlorobenzoyl)-9-[(1H-indol-4-yl)methyl]-1,2,3,4,8,9-hexahydropyrido[4′,3′:3,4]-pyrazolo[1,5-a]pyrazin-10(7H)-one] | 0.054 | 16.4 | – |
| C[C@@H]1Cc2nn3c(c2CN1C(=O)c1cc2c(Cl)c(Cl)ccc2[nH]1)C(=O)N(Cc1ccccn1)CC3 [Example C94, (R)-2-(4,5-dichloro-1H-indole-2-carbonyl)-3-methyl-9-(pyridin-2-ylmethyl)-1,2,3,4,8,9-hexahydropyrido[4′,3′:3,4]pyrazolo[1,5-a]pyrazin-10(7H)-one] | 0.162 | 4.77 | – |
| C=C1CN(C)C(=O)c2c3c(nn2C1)C[C@@H](C)N(C(=O)c1ccc(Cl)c(Cl)c1)C3 [Compound 42, (3R)-2-(3,4-Dichlorobenzoyl)-3,10-dimethyl-8-methylidene-1,2,3,4,7,8,9,10-octahydro-11H-pyrido[4′,3′:3,4]pyrazolo[1,5-a][1,4]diazepin-11-one] | 0.308 | 1.44 | – |
| Cc1ncc(CN2CCn3nc4c(c3C2=O)CN(C(=O)c2ccc(Cl)c(Cl)c2)[C@H](C)C4)s1 [Example C160] | 0.029 | > 50 | – |
| C[C@@H]1Cc2nn3c(c2CN1C(=O)c1ccc(Cl)c(Cl)c1)C(=O)N(Cc1cccnc1C(F)(F)F)CC3 [Example C233] | 0.423 | 29.8 | – |
| C[C@@H]1Cc2nn3c(c2CN1C(=O)c1ccc(Cl)c(Cl)c1)C(=O)N(Cc1cccc(OC(F)F)c1)CC3 [Example C66] | 0.042 | 9.18 | – |
| C[C@@H]1Cc2nn3c(c2CN1C(=O)c1ccc(Cl)c(Cl)c1)C(=O)N(Cc1cc(F)ccc1OC(F)F)CC3 [Example C212] | 0.05 | > 50 | – |
| C[C@@H]1Cc2nn3c(c2CN1C(=O)c1ccc(Cl)c(Cl)c1)C(=O)N(Cc1ncccc1C(F)(F)F)CC3 [Example C159] | 0.979 | 36 | – |
| C[C@@H]1Cc2nn3c(c2CN1C(=O)c1ccc(Cl)c(Cl)c1)C(=O)NCCC3 [Compound 38, (3R)-2-(3,4-Dichlorobenzoyl)-3-methyl-1,2,3,4,7,8,9,10-octahydro-11H-pyrido[4′,3′:3,4]-pyrazolo[1,5-a][1,4]diazepin-11-one] | 1.75 | > 50 | – |
| C[C@@H]1Cc2nn3c(c2CN1C(=O)c1ccc(Cl)c(Cl)c1)C(=O)N(Cc1ccc(C(F)(F)F)cn1)CC3 [Example C237] | 0.107 | 18.8 | – |
